pIC50: −log10 of the molar value.
These molecules were tested against T1, Recombinant human BRD4 containing dual bromodomains (BRD4-BD12 (1-477)) (Homo sapiens, UniProt O60885) (assay: BRD4 Alphascreen binding assay).
T1 construct: Recombinant human BRD4 containing dual bromodomains (BRD4-BD12 (1-477)); made in house; host or cells: E. coli BL21-CodonPlus (DE3), modified pET vector
In short: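 AlphaScreen proximity between Ni-chelate-bound BRD4-BD12 (1-477) and streptavidin-captured H4 K5/K8/K12/K16-acetyl peptide measured after 1 h room-temperature compound incubation and 30 min with 7.5 μg/ml beads. Buffer: 50 mM HEPES pH 7.5, 50 mM NaCl, 0.01% BSA, 0.01% Triton X-100; data plate-normalized and four-parameter fit for IC50.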
With `Cc1noc(C)c1-c1cnc2c(-c3cccc(C(=O)O)c3)c(C(F)(F)F)n([C@@H](C)c3ccccn3)c2c1` [P-0162, (S)-3-(6-(3,5-dimethylisoxazol-4-yl)-1-(1-(pyridin-2-yl)ethyl)-2-(trifluoromethyl)-1H-pyrrolo[3,2-b]pyridin-3-yl)benzoic acid] the pIC50 was 3.00 to 5.10.
With `Cc1noc(C)c1-c1cnc2c(C(O)(C3CC3)C3CC3)cn(-c3ccc(C(=O)O)cc3OC(F)(F)F)c2c1` [P-0163, 4-(3-(dicyclopropyl(hydroxy)methyl)-6-(3,5-dimethylisoxazol-4-yl)-1H-pyrrolo[3,2-b]pyridin-1-yl)-3-(trifluoromethoxy)benzoic acid] the pIC50 was 3.00 to 5.10.
`Cc1noc(C)c1-c1cnc2c(-c3cc(C(=O)O)ccc3Cl)cn(C(C)(c3ccccn3)c3ccccn3)c2c1` [P-0164, 4-chloro-3-(1-(1,1-di(pyridin-2-yl)ethyl)-6-(3,5-dimethylisoxazol-4-yl)-1H-pyrrolo[3,2-b]pyridin-3-yl)benzoic acid] was tested, and the pIC50 was 5.10 to 6.00.
For `CCOc1cc(C(=O)O)cc(OCC)c1-n1cc(C(O)(C2CC2)C2CC2)c2ncc(-c3c(C)noc3C)cc21` [P-0165, 4-(3-(dicyclopropyl(hydroxy)methyl)-6-(3,5-dimethylisoxazol-4-yl)-1H-pyrrolo[3,2-b]pyridin-1-yl)-3,5-diethoxybenzoic acid], the pIC50 was 3.00 to 5.10.
Molecule `Cc1noc(C)c1-c1cnc2c(-c3cc(C(=O)O)ccc3C#N)cn(C(C)(c3ccccn3)c3ccccn3)c2c1` [P-0166, 4-cyano-3-(1-(1,1-di(pyridin-2-yl)ethyl)-6-(3,5-dimethylisoxazol-4-yl)-1H-pyrrolo[3,2-b]pyridin-3-yl)benzoic acid] has a pIC50 of 6.00 to 10.00.
Work on `C#Cc1ccccc1-c1cn(C(C)(c2ccccn2)c2ccccn2)c2cc(-c3c(C)noc3C)cnc12` [P-0167, 4-(1-(1,1-di(pyridin-2-yl)ethyl)-3-(2-ethynylphenyl)-1H-pyrrolo[3,2-b]pyridin-6-yl)-3,5-dimethylisoxazole] yielded a pIC50 of 6.00 to 10.00.
Molecule `CCOc1cc(C(=O)O)cc(OCC)c1-n1cc(-c2ccccc2)c2ncc(-c3c(C)noc3C)cc21` [P-0168, 4-(6-(3,5-dimethylisoxazol-4-yl)-3-phenyl-1H-pyrrolo[3,2-b]pyridin-1-yl)-3,5-diethoxybenzoic acid] has a pIC50 of 5.10 to 6.00.
In the case of `Cc1noc(C)c1-c1cnc2c(-c3ccccc3C#N)cn(C(C)(c3ccccn3)c3ccccn3)c2c1` [P-0169, 2-(1-(1,1-di(pyridin-2-yl)ethyl)-6-(3,5-dimethylisoxazol-4-yl)-1H-pyrrolo[3,2-b]pyridin-3-yl)benzonitrile], the pIC50 was 6.00 to 10.00.
